Calls of active or inactive are those of the source.
How the values were obtained:
Beta-galactosidase = Beta-galactosidase (Escherichia coli, UniProt Q8VNN2); experiment: Dose response counterscreen for EBI2 assay utilizing the enzyme, b-galactosidase.; format: functional
Nonstructural protein 1 = Nonstructural protein 1 (Influenza A virus, UniProt Q194T2); format: functional, Influenza A virus (A/California/07/2009(H1N1))
[1] = target: Photoreceptor-specific nuclear receptor (Homo sapiens, UniProt Q9Y5X4); format: functional, cell-based;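 further: CHO-S cells with Gal4-NCOR and VP16-NR2E3 two-hybrid luciferase reporter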
Photoreceptor-specific nuclear receptor, sequence (Q9Y5X4 whole entry, the tested form may be a part): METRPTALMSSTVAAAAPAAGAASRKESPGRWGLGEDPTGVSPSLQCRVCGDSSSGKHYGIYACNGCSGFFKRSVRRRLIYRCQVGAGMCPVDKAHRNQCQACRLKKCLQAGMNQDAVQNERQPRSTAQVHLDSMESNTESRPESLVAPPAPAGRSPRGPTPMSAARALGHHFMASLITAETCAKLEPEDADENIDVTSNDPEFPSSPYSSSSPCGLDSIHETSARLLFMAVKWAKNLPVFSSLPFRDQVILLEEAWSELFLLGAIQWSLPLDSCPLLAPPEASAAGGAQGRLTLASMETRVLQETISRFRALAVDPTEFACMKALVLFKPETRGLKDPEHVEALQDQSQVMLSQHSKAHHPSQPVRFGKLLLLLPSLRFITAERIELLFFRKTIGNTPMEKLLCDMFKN

[2] = HeLa cell cytotoxicity, dose response, cytotoxicity control for MgcRacGAP inhibitor project (AID 624300); format: functional
[3] = target: T1, Rac GTPase-activating protein 1 (Homo sapiens, UniProt Q9H0H5); experiment: MgcRacGAP GTPase-activating activity inhibitors, confirmation, biochemical, ADP Hunter fluorescence, primary and confirmatory (AID 624330); format: functional
T1 sequence (Q9H0H5 whole entry): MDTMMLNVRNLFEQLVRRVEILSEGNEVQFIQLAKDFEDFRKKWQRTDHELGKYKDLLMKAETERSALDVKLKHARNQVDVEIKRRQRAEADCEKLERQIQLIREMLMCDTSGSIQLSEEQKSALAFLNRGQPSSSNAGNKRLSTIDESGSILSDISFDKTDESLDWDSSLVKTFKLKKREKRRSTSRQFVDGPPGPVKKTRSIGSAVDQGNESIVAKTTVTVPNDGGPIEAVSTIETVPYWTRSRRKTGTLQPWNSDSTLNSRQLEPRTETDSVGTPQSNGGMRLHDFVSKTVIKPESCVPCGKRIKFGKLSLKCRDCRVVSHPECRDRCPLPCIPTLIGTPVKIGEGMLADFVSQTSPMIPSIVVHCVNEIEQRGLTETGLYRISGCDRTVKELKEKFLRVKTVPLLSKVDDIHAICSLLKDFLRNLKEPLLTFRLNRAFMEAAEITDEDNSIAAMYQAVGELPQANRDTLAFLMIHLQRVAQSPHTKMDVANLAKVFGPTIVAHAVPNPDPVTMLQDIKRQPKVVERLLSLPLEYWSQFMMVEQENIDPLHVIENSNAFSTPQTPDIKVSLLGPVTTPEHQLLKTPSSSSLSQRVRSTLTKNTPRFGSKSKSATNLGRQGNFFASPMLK

[4] = target: T2, DNA repair protein RAD52 homolog (Homo sapiens, UniProt P43351); format: functional, biochemical
T2 sequence (P43351 whole entry): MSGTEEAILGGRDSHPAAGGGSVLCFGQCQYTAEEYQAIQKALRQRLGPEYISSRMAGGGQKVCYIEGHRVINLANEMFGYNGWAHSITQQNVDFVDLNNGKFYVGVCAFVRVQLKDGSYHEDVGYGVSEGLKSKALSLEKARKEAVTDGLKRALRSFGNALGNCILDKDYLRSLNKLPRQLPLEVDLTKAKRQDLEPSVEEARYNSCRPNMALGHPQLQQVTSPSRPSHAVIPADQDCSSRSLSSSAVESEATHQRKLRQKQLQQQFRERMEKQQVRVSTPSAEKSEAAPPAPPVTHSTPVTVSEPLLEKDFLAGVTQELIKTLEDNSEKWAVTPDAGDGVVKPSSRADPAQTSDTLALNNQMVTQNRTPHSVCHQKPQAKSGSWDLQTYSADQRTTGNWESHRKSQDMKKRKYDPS

[5] = human group III sPLA2 inhibitors, dose response, biochemical, QFRET, IC50 (AID 743457);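 further: green fluorescence rise as the enzyme cleaves BODIPY PC-A2 in liposomes; potency for inhibition of the enzyme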
cells = settings: A549
Paired box protein Pax-8 = Paired box protein Pax-8 (Homo sapiens, UniProt Q06710); experiment: inhibitors of PAX8-driven TPO luciferase reporter, dose response, RMG-I cells, cherry-pick (AID 687027); format: functional, cell-based;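 further: luciferase reporter driven by Pax8 target thyroperoxidase promoter measured by SteadyGlo luminescence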
Paired box protein Pax-8, sequence (Q06710 whole entry): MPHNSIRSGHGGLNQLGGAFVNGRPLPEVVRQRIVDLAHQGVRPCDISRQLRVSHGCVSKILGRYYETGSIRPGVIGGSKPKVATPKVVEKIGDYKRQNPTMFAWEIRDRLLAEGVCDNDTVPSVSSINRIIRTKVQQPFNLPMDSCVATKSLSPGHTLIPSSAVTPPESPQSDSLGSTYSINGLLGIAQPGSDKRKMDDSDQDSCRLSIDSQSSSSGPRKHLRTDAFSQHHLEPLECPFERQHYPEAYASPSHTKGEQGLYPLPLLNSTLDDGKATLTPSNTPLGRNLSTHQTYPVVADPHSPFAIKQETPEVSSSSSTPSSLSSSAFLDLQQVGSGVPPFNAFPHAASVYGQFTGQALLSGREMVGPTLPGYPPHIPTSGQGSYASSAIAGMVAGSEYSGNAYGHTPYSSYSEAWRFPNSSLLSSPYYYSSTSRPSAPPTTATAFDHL

[6] = inhibitors of CMV-promoter luciferase reporter, dose response, counter-screen for Pax8 inhibitor project, cell-based, HEK293, luminescence, dry powder (AID 743020); format: functional
[7] = NIH:OVCAR-3 ovarian cancer cell cytotoxicity, dose response, PAX8 inhibitor project, plate reader, dry powder samples (AID 743044); format: functional, cell-based
[8] = cytotoxicity in OVCAR8 ovarian cancer cells, dose response, PAX8 project, cell-based, plate reader, dry powder samples (AID 743197); format: functional; settings: OVCAR-8
[9] = cytotoxicity in HeLa cells, dose response, cytotoxicity control, cell-based, plate reader, dry powder (AID 651946); format: functional
[10] = A549 cell cytotoxicity, dose response, cytotoxicity control, plate reader, cherry-pick, antagonist series (AID 743412); format: functional, cell-based
[11] = LGR2 antagonists, dose response, cell-based, HEK293, CRE-luciferase reporter, cherry pick (AID 743342); format: functional
[12] = MITF Orthogonal Assay: SK-MEL-5 CTG Assay Measured in Cell-Based System Using Plate Reader - 2084-02_Inhibitor_Dose_DryPowder_Activity_Set7.; format: functional
[13] = MITF: Counter assay: A375 proliferation Measured in Cell-Based System Using Plate Reader - 2084-03_Inhibitor_Dose_DryPowder_Activity_Set8.; format: functional; settings: A-375
[14] = TRPM1 promoter luciferase reporter signal decrease, dose response, MITF inhibitor project, cell-based, SK-MEL-5, dry powder, set 8 (AID 624430); format: functional
[15] = IGROV1 ovarian cancer cell cytotoxicity, dose response, PAX8 inhibitor project, plate reader, dry powder samples (AID 743043); format: functional, cell-based; settings: IGROV-1
[16] = cytotoxicity in COV434 cells, dose response, cytotoxicity control for PAX8 inhibitor project, cell-based, plate reader, dry powder, SA7 (AID 743145); format: functional
[17] = cytotoxicity in OV-90 ovarian cancer cells, dose response, PAX8 inhibitor project, cell-based, plate reader, dry powder, SA8 (AID 743149); format: functional
[18] = cytotoxicity dependent on PAX8, dose response, cell-based, plate reader, dry powder (AID 743049); format: functional
[19] = T. cruzi growth inhibition in host cells, dose response, cell-based, plate reader, dry powder, set 2 (AID 652275); format: functional
[20] = BHK-21 cell cytotoxicity, cytotoxicity control for flavivirus guanylyltransferase probe project, secondary screen (AID 624078); format: functional
[21] = target: Protein disulfide-isomerase (Homo sapiens, UniProt P07237); experiment: PDI inhibitors, insulin turbidity readout, confirmation, biochemical, dry powder samples, set 2 (AID 652146)
Protein disulfide-isomerase, sequence (P07237 whole entry): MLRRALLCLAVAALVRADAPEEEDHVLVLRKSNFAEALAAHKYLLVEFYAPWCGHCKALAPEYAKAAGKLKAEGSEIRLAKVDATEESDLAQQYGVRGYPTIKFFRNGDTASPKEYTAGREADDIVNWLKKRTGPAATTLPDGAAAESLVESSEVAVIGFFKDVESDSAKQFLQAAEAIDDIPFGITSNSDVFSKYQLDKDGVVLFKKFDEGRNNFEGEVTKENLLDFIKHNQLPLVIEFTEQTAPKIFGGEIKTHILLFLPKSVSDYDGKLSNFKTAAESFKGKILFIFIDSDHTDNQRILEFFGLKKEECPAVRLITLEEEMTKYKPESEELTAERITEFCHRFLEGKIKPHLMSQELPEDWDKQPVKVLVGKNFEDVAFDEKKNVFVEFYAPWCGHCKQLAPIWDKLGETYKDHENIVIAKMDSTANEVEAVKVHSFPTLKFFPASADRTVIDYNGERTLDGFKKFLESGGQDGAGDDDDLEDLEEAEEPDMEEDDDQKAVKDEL

Nonstructural protein 1, sequence (Q194T2 whole entry, the tested form may be a part): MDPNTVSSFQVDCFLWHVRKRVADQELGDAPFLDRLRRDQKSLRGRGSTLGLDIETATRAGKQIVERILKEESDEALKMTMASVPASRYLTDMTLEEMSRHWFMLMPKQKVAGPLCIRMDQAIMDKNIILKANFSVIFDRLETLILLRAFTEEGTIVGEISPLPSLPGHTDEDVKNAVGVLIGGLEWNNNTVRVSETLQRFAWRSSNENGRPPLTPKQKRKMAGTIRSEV
Beta-galactosidase, sequence (Q8VNN2 whole entry): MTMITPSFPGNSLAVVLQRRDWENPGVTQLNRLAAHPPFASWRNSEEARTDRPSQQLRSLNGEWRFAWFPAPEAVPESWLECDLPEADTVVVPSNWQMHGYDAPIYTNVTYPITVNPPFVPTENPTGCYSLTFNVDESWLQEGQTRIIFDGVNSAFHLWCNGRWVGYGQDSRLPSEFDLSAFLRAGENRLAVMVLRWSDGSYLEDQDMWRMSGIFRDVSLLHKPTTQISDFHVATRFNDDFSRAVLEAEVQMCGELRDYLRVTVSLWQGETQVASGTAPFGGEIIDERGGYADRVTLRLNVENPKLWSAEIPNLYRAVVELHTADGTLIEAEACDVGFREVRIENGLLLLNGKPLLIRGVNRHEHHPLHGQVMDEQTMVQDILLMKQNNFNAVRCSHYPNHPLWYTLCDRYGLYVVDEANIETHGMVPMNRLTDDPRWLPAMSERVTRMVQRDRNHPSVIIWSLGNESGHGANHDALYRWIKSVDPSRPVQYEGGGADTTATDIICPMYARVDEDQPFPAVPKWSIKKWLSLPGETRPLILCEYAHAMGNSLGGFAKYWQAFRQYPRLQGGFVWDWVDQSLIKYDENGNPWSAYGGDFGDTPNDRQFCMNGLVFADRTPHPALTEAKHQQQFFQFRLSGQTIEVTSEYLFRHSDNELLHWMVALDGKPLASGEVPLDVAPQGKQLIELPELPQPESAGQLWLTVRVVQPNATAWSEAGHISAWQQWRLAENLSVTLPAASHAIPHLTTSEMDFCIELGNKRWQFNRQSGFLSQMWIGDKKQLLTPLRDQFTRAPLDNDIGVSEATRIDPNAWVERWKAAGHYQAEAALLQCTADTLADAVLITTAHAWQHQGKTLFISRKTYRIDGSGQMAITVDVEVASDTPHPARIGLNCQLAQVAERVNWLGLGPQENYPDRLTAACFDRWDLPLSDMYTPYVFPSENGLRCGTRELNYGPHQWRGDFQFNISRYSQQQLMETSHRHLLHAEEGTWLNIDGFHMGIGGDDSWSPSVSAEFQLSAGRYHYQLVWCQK

With CCOC(=O)C1CCN(C2=NC(=O)/C(=C/c3ccc(Cl)cc3)S2)CC1 the IC50 (Beta-galactosidase) was > 80 µM (inactive).
In the case of CN(C)c1ccc(/C=C/c2cc[n+](C)c3ccccc23)cc1, the IC50 (Nonstructural protein 1) is reported as 10.6 µM (active), the IC50 [1] is reported as 7.07 µM (active) and the CC50 [2] is reported as 54.1 µM (active). The IC50 [3] was 38.5 µM (active), the AC50 [4] was 1.23 µM (active) and the IC50 [5] was 30.1 µM (inactive).
For CC(=O)c1cccc(-c2ccnc3c2CC(C(=O)NCc2ccc(F)c(F)c2)O3)c1 (stereo unspecified), the AC50 (cells) was 3.92 µM (active).
In the case of C[C@H]1CN([C@@H](C)CO)S(=O)(=O)c2ccc(C#CC3CCCC3)cc2O[C@@H]1CN(C)Cc1cccnc1, the AC50 (Paired box protein Pax-8) is reported as 14.4 µM (active), the AC50 [6] is reported as 39.4 µM (active) and the AC50 [7] is reported as 37.1 µM (active). The AC50 [8] was > 70 µM (inactive).
With N#Cc1cccc(CSc2nnc(-c3ccccc3)o2)c1 the AC50 [9] was > 52 µM (inactive).
In the case of C[C@H](CO)N1C[C@H](C)[C@H](CN(C)C(=O)Nc2ccc3c(c2)OCO3)OCCCC[C@H](C)Oc2ccc(NC(=O)C3CCCCC3)cc2C1=O, the AC50 [10] is reported as 41 µM (active) and the AC50 [11] is reported as 2.21 µM (active).
With Cc1cccc(NC2=CC(=O)c3ccccc3C2=O)c1 the AC50 [12] was 0.66 µM (active), the AC50 [13] was > 70 µM (inactive) and the AC50 [14] was 18.9 µM (active).
For N#C[C@H]1N[C@H](CO)[C@@H]1c1ccc(C#Cc2ccccc2F)cc1, the AC50 [7] was 49.8 µM (active), the AC50 [15] was 45.2 µM (active) and the AC50 [16] was > 70 µM (inactive). For the same molecule, the AC50 [17] was > 70 µM (inactive) and the AC50 [18] was 30.1 µM (active).
For C[C@@H](CO)N1CC[C@H](CNCc2ccc(Oc3ccccc3)cc2)Oc2c(NC(=O)c3ccncc3)cccc2C1=O, the AC50 [19] was 0.0179 µM (active).
For O=S(=O)(Nc1cc(Cl)c(O)c2ccccc12)c1ccc(F)cc1, the CC50 [20] was 12.5 µM (active).
With CCOC(=O)C1(CCOc2ccccc2)CCN(Cc2ccc3[nH]c(=O)oc3c2)CC1 the AC50 [21] was > 30 µM (inactive).

Reference: ChEMBL document CHEMBL1201862, “PubChem BioAssay data set” (2004)
